The IC50 is the concentration that gives 50% inhibition. High values mean lower potency, low ones higher potency.

The values below come from ChEMBL document CHEMBL1130038, “1,2-Diarylpyrroles as potent and selective inhibitors of cyclooxygenase-2” (J Med Chem, 1997).

For assay [1], the target named is T1, Prostaglandin G/H synthase 1 (Homo sapiens, UniProt P23219).
Description: In vitro inhibitory activity against human prostaglandin G/H synthase 1
Assay [2] concerns the target T2, Prostaglandin G/H synthase 2 (Homo sapiens, UniProt P35354).
T2 sequence (P35354 whole entry): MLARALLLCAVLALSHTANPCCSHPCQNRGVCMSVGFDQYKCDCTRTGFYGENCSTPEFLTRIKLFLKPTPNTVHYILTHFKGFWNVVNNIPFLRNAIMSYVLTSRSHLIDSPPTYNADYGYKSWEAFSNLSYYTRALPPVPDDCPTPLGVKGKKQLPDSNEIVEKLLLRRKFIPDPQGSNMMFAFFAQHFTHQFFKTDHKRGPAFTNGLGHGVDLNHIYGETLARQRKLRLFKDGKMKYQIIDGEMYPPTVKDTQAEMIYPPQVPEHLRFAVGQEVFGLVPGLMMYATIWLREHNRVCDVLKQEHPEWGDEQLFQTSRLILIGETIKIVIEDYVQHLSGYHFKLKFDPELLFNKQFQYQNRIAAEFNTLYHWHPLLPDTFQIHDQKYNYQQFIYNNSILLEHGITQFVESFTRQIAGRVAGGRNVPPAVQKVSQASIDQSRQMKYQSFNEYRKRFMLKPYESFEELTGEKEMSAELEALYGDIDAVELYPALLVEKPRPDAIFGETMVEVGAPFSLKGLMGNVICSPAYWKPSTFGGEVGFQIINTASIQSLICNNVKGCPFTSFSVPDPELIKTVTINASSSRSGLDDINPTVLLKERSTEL

The target in assay [3] is T1, Prostaglandin G/H synthase 1. This is another data set of the same source.
The species named for assay [4] is Rattus norvegicus. Briefly: animal or person. Conditions: po, read-out: Inhibition; call rule not given here.
Assay [5] deals with T1, Prostaglandin G/H synthase 1. The source holds these as a separate data set.
Description: In vitro inhibitory activity against human Prostaglandin G/H synthase 1; NA indicates inactive
Assay [6] concerns the target T2, Prostaglandin G/H synthase 2. The source holds these as a separate data set.
Description: In vitro inhibitory activity against human Prostaglandin G/H synthase 2; NA indicates inactive
The species named for assay [7] is Homo sapiens. Briefly: tissue or blood.
Description: Ability to inhibit LPS-induced PGE-2 production in human whole blood
Assay [8] deals with T1, Prostaglandin G/H synthase 1. The assay is classed as functional, cell-based, HL-60.
Description: In vitro inhibitory activity against Prostaglandin G/H synthase 1 in retinoic acid stimulated HL-60 cells
For assay [9], the species on record is Homo sapiens. Kind of assay: tissue or blood. This is another data set of the same source.
The species named for assay [10] is Homo sapiens. Kind of assay: tissue or blood. The source holds these as a separate data set.
Description: Inhibition of LPS-induced PGE-2 production in the human whole blood.
The species entered for assay [11] is Homo sapiens. Kind of assay: tissue or blood. The source holds these as a separate data set.
Description: Inhibition of TXB2 production in the human whole blood.
Assay [12] is filed under the species Rattus norvegicus. Briefly: animal or person. The conditions noted are these: po, read-out: Inhibition. The source holds these as a separate data set.

T1 sequence (P23219 whole entry): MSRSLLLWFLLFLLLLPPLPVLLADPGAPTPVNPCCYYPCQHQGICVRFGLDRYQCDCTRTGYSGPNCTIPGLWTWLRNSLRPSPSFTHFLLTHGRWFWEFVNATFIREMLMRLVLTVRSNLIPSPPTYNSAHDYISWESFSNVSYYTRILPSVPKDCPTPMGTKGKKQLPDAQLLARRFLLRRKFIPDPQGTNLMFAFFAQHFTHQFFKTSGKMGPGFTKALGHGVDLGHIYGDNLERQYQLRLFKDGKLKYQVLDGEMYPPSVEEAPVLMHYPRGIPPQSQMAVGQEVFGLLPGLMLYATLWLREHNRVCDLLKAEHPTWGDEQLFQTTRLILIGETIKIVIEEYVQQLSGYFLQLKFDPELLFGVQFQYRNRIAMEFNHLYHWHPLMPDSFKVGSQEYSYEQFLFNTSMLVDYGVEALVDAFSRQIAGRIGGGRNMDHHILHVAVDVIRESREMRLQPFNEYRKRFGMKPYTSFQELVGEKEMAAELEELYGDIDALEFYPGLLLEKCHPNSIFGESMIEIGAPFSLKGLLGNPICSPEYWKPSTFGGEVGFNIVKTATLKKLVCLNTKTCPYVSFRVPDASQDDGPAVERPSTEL

For the molecule `CS(=O)(=O)c1cccc(-n2cccc2-c2ccc(F)cc2)c1`, the concentration for half-maximal inhibition (IC50) in [1] was greater than 100 µM. On the same count and under the same terms, then `Cc1ccc(-c2ccc(S(C)(=O)=O)cc2)n1Cc1ccc(F)cc1`, with greater than 100 µM. In the case of `CCN(CC)OC(=O)c1ccc(-n2c(C)ccc2-c2ccc(F)cc2)cc1`, the half-inhibitory concentration (IC50) result in assay [2] and in assay [3] was “Active” each time. With `Cc1ccc(-c2ccc(F)cc2)n1-c1ccc(S(C)(=O)=O)cc1`, the half-inhibitory concentration (IC50) in assay [1] is greater than 100 µM. As for `Cc1ccc(-c2ccc(S(C)(=O)=O)cc2)n1-c1ccccc1`, the inhibition in vivo at 10 mg/kg in the assay filed under Rattus norvegicus [4] worked out at 21%. Take `CCCCn1c(C)ccc1-c1ccc(S(C)(=O)=O)cc1`: the inhibition in vivo at 10 mg/kg in the assay filed under Rattus norvegicus [4] worked out at 1%. In [1], this molecule returned an IC50 greater than 100 µM.

Turning to `COc1ccc(-c2ccc(C)n2-c2ccc(C(C)=O)cc2)cc1`, the IC50 entry in [5] and in [6] was “Not Active” each time. Take `Cc1ccc(-c2ccc(S(C)(=O)=O)cc2)n1-c1ccc(F)c(F)c1`: the inhibition in vivo at 10 mg/kg in the assay filed under Rattus norvegicus [4] amounted to 17%.

On to `CS(=O)(=O)c1ccc(-c2ccc(CCC(=O)O)n2-c2ccc(F)cc2)cc1`, for which, in [1], the IC50 was greater than 100 µM. On the same count and under the same terms, to `CNS(=O)(=O)c1ccc(-n2cccc2-c2ccc(F)cc2)cc1` belongs greater than 100 µM.

On to `Cc1c(Br)cc(-c2ccc(S(C)(=O)=O)cc2)n1-c1ccc(F)cc1`, for which, in the assay listed under Rattus norvegicus [4], the inhibition in vivo at 10 mg/kg came out at 34%.

Take `Cc1ccc(-c2ccc(F)cc2)n1-c1ccc([S+](C)[O-])cc1` (stereo not given): the IC50 entry in assay [5] and in assay [6] was “Not Active” in each case. Regarding `Cc1ccc(-c2ccc(S(C)(=O)=O)cc2)n1-c1ccc(C(F)(F)F)cc1`, the inhibition in vivo at 10 mg/kg in the assay listed under Rattus norvegicus [4] was 31%. `O=S(=O)(c1ccccc1)c1ccc(-n2cccc2-c2ccc(F)cc2)cc1` registered an IC50 in assay [1] greater than 100 µM.

In assay [1], `CCS(=O)(=O)c1ccc(-n2cccc2-c2ccc(F)cc2)cc1` yielded a half-maximal inhibitory concentration (IC50) greater than 100 µM. On the same count and under the same terms, to `Cc1c(CN(C)C)cc(-c2ccc(S(C)(=O)=O)cc2)n1-c1ccc(F)cc1` belongs greater than 100 µM. On to `Cc1ccc(-c2ccc(S(C)(=O)=O)cc2)n1-c1ccc(F)cc1`, for which, in the assay filed under Rattus norvegicus [4], the inhibition in vivo at 10 mg/kg amounted to 25%. Also, in [1], the half-maximal inhibitory concentration (IC50) is greater than 100 µM. Turning to `CS(=O)(=O)c1ccc(-c2cccn2-c2ccc(F)cc2)cc1`, in [1], the IC50 is greater than 100 µM. For `NS(=O)(=O)c1ccc(-n2cccc2-c2ccc(F)cc2)cc1`, the inhibition in vivo at 10 mg/kg in the assay listed under Rattus norvegicus [4] worked out at 30%. Regarding `Cc1c(C(Oc2cccc(Cl)c2)C(F)(F)F)cc(-c2ccc(S(C)(=O)=O)cc2)n1-c1ccc(F)cc1` (stereo not given), in assay [1], the IC50 was greater than 100 µM. As to `COc1ccc(-c2ccc(CCC(=O)O)n2-c2ccc(C(C)=O)cc2)cc1`, the IC50 in the assay listed under Homo sapiens [7] turned out to be 1500 nM; in assay [8] it was 1000 nM; in the assay filed under Homo sapiens [9] it was 300 nM; in assay [1] it was 25 µM. As to `Cc1c(COc2cccc(Cl)c2)cc(-c2ccc(S(C)(=O)=O)cc2)n1-c1ccc(F)cc1`, the half-inhibitory concentration (IC50) in [1] is greater than 100 µM.

For `Cc1ccc(-n2c(C)ccc2-c2ccc(S(C)(=O)=O)cc2)cc1`, the inhibition in vivo at 10 mg/kg in the assay filed under Rattus norvegicus [4] is 25%. As for `CN(C)S(=O)(=O)c1ccc(-n2c(CCC(=O)O)ccc2-c2ccc(F)cc2)cc1`, the IC50 in the assay filed under Homo sapiens [10] was 4.4 µM; in the assay filed under Homo sapiens [11], greater than 50 µM. Molecule `Cc1ccc(-c2ccc(S(C)(=O)=O)cc2)n1C(C)C` came in with an IC50 in assay [1] greater than 100 µM. On the same count and under the same terms, then `Cc1ccc(-c2ccc(S(C)(=O)=O)cc2)n1C1CCCCC1`, with greater than 100 µM. In the case of `CS(=O)(=O)c1ccc(-n2cccc2-c2ccc(F)cc2)cc1`, in the assay filed under Rattus norvegicus [4], the inhibition in vivo at 10 mg/kg turned out to be 42%. As to `Cc1ccc(-c2ccc(S(C)(=O)=O)cc2)[nH]1`, the 50% inhibitory concentration (IC50) in assay [1] is greater than 100 µM. On the same count and under the same terms, to `Cc1c(COc2ccc(Cl)cc2)cc(-c2ccc(S(C)(=O)=O)cc2)n1-c1ccc(F)cc1` belongs greater than 100 µM.

For `CCc1ccc(-c2ccc(S(C)(=O)=O)cc2)n1-c1ccc(F)cc1`, the IC50 in assay [1] is greater than 100 µM.

For the molecule `CC(=O)c1ccc(-n2c(C)ccc2-c2ccc(F)cc2)cc1`, the half-inhibitory concentration (IC50) result in assay [5] and in assay [6] was “Not Active” each time. With `Cc1c(S(=O)(=O)C(F)(F)F)cc(-c2ccc(S(C)(=O)=O)cc2)n1-c1ccc(F)cc1`, in the assay filed under Rattus norvegicus [12], the inhibition in vivo at 20 mg/kg worked out at 30%. In [1], this molecule gave an IC50 greater than 100 µM.

As to `CC(=O)c1cc(-c2ccc(S(C)(=O)=O)cc2)n(-c2ccc(F)cc2)c1C`, in the assay filed under Rattus norvegicus [4], the inhibition in vivo at 10 mg/kg was 13%. In the case of `Cc1c(C(O)C(F)(F)F)cc(-c2ccc(S(C)(=O)=O)cc2)n1-c1ccc(F)cc1` (stereo not given), in the assay listed under Rattus norvegicus [12], the inhibition in vivo at 20 mg/kg was found to be 15%. `CS(=O)(=O)c1ccc(-n2cccc2-c2ccc(F)cc2)cc1Cl` registered an IC50 in [1] greater than 100 µM. On the same count and under the same terms, to `CN(C)S(=O)(=O)c1ccc(-n2cccc2-c2ccc(F)cc2)cc1` belongs greater than 100 µM; to `CS(=O)(=O)c1ccc(-c2ccc(C(F)(F)F)n2-c2ccc(F)cc2)cc1`, greater than 100 µM.

Consider `COC(=O)c1ccc(-n2c(C)ccc2-c2ccc(F)cc2)cc1`, for which the IC50 entry in assay [5] and in [6] was “Not Active” in each case.
